From patent US20040105778A1, “Gamma irradiation of solid nanoparticulate active agents” (Elan Pharma International Limited, priority 2002, published 2004) come the findings set out here.

A short description of the data set: Gamma irradiation dosing studies, naproxen assay and degradants. In kind it is physicochemical.

Regarding `COc1ccc2cc([C@H](C)C(=O)O)ccc2c1` [Naproxen (API), naproxen], the “Naproxen Assay Average” value amounted to 99.07 % w/w (Control (0 kGy)); 96.38 % w/w (gamma dose 5 kGy); 100.82 % w/w (gamma dose 10 kGy); 100.44 % w/w (gamma dose 15 kGy); 100.08 % w/w (gamma dose 25 kGy); 100.47 % w/w (gamma dose 30 kGy). The “Naproxen Assay Average” value amounted to 99.14 % w/w (gamma dose 40 kGy) and 99.49 % w/w (gamma dose 50 kGy). The “Naproxen Assay Relative to Control” value (Control (0 kGy)) came out at 100.00; the “Naproxen Assay Relative to Control” value (gamma dose 5 kGy) is given as 97.28; the “Naproxen Assay Relative to Control” value (gamma dose 10 kGy) was 101.77; the “Naproxen Assay Relative to Control” value (gamma dose 40 kGy) was determined as 100.07; the “Naproxen Assay Relative to Control” value (gamma dose 50 kGy) amounted to 100.42.
